This note sets out measurements from the Kinase Knowledgebase extract (Sharma et al. 2016).

The term IC50 denotes the concentration at which inhibition is half-maximal. Low readings indicate higher potency, high ones lower potency.

Assay [1] concerns the target PIK3CD (Human) (UniProt O00329). The assay can be described thus: Enzyme Assay.
A further assay deals with PIK3CB (Human) (UniProt P42338). Kind of assay: Enzyme Assay.
The target in another assay is PIK3CA (human) (UniProt P42336). Kind of assay: Enzyme Assay.
Sequence of PIK3CA (human) (P42336 whole entry, looked up): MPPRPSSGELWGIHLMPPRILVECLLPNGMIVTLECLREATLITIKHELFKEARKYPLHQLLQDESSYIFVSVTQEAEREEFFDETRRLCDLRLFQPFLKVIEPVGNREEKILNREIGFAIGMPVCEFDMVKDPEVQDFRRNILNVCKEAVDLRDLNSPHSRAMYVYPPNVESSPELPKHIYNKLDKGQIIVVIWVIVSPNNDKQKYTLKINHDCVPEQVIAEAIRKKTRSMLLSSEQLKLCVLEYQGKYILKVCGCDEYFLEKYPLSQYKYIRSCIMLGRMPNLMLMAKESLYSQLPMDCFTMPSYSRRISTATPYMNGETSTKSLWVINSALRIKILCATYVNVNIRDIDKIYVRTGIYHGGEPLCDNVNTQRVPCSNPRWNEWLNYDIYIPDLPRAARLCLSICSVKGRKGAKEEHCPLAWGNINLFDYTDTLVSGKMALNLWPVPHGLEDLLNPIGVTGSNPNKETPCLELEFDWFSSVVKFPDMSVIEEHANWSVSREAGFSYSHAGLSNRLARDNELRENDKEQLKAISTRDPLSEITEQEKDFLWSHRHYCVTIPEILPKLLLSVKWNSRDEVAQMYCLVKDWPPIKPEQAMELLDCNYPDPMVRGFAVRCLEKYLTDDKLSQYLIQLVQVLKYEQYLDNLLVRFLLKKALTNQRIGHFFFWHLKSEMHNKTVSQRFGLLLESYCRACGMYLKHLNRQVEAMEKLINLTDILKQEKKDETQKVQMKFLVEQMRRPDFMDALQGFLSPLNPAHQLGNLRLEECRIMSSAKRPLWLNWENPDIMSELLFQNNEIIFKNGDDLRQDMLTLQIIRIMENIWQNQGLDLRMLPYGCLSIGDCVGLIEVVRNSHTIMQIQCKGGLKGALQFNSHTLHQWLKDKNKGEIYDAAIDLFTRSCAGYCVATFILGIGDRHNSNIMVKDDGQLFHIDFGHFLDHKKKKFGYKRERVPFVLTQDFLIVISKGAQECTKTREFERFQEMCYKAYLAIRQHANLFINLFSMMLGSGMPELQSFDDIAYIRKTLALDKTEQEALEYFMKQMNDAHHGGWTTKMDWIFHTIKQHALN
Assay [2] concerns the target PIK3CD (Human) (UniProt O00329). The assay can be described thus: Cell-Based Assay. The settings on record: raji.
Another assay deals with PIK3CG (human) (UniProt P48736). The assay can be described thus: Enzyme Assay.
Sequence of PIK3CG (human) (P48736 whole entry, looked up): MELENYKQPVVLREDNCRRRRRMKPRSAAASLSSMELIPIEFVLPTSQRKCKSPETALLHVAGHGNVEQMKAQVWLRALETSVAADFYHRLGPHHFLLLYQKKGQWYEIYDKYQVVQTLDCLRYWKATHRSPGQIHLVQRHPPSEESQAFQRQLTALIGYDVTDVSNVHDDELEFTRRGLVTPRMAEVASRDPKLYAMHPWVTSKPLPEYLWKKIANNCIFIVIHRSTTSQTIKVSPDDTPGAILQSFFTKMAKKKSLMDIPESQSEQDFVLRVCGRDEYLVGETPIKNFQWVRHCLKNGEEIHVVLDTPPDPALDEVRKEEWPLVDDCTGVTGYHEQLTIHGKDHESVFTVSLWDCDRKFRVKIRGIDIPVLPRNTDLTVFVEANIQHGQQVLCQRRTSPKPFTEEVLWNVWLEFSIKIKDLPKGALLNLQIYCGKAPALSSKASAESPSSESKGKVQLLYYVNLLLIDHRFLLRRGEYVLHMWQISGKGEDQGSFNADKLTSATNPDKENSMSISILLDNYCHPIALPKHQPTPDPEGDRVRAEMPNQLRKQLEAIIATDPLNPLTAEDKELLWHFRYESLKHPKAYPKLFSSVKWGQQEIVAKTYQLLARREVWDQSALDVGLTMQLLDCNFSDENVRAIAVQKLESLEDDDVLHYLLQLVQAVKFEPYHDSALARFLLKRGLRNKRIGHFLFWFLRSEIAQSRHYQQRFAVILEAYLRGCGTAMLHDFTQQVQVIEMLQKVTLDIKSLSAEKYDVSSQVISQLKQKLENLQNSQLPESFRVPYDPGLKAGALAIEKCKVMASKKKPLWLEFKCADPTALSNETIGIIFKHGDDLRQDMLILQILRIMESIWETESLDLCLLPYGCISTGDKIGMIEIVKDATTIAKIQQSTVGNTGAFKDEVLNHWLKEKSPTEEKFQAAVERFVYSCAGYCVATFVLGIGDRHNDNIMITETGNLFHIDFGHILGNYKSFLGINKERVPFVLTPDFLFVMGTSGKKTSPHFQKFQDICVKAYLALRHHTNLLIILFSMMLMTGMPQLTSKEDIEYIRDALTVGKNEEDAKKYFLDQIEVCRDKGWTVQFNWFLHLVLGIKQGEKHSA

Sequence of PIK3CD (Human) (O00329 whole entry, looked up): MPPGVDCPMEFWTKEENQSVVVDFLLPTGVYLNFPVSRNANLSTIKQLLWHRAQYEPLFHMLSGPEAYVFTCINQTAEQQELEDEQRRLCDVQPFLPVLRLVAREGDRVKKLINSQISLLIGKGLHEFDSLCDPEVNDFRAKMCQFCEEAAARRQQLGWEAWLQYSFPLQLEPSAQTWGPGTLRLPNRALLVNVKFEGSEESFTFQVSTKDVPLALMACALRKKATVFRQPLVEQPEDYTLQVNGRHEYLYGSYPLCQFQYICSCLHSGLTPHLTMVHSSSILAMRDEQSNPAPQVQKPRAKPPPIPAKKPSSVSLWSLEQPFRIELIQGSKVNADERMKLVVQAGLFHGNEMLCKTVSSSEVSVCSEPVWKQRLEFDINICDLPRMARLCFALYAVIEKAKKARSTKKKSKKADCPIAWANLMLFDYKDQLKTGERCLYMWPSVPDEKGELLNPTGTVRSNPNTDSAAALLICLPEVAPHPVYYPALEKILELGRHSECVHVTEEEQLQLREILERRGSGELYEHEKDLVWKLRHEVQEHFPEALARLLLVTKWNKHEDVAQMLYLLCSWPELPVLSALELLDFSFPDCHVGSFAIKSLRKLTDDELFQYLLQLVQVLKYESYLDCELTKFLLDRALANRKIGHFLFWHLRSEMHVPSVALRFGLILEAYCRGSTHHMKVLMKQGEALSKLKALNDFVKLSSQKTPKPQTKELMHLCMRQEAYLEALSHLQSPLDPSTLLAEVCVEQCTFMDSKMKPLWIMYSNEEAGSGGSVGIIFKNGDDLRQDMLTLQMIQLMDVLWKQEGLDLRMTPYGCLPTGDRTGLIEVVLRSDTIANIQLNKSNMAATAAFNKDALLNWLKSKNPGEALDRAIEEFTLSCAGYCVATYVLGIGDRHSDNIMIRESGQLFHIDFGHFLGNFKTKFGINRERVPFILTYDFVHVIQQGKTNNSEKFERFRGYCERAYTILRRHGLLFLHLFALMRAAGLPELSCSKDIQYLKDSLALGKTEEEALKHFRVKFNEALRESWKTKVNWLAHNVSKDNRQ
Sequence of PIK3CB (Human) (P42338 whole entry, looked up): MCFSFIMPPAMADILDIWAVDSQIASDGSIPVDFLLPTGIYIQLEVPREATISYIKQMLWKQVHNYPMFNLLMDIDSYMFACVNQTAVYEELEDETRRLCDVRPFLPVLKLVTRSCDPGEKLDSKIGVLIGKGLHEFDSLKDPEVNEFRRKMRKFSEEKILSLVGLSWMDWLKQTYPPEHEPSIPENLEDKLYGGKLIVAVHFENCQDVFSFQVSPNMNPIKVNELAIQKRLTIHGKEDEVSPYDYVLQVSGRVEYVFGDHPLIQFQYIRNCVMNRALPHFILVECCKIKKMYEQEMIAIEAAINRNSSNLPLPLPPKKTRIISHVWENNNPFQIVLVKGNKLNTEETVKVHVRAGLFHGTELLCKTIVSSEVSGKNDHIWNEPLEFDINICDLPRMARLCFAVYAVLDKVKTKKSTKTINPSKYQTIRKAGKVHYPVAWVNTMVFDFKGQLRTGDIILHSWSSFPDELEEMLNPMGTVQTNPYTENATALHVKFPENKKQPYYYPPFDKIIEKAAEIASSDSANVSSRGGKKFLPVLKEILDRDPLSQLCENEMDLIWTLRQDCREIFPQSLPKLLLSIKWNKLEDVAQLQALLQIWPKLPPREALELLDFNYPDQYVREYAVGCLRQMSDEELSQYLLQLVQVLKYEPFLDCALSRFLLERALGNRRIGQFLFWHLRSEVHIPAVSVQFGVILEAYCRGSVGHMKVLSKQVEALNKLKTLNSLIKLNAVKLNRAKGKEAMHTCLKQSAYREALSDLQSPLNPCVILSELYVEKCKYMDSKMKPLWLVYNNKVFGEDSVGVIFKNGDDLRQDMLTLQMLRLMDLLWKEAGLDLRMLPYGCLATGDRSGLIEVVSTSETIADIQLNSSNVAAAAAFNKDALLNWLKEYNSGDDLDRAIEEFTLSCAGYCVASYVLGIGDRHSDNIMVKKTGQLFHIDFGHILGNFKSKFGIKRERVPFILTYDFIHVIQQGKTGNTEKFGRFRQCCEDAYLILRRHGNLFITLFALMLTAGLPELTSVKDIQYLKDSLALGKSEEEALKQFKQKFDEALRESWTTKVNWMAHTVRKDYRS

Consider `C[C@H](NC(=O)c1c(N)nn2cccnc12)c1cc2cccc(N(C)C)c2c(=O)n1-c1ccccc1`, for which the 50% inhibitory concentration (IC50) on PIK3CD (Human) [1], at PIK3CB (Human) and against PIK3CA (human) was not below 10000 nM throughout.

On to `C[C@H](NC(=O)c1nccnc1N)c1cc2cccc(-c3cccnc3)c2c(=O)n1-c1ccccc1`, for which the IC50 against PIK3CD (Human) [1] was less than 100 nM; at PIK3CB (Human) it was not below 10000 nM; against PIK3CA (human), not below 10000 nM; at PIK3CD (Human) [2] it was less than 100 nM.

Turning to `C[C@H](NC(=O)c1c(N)nn2cccnc12)c1cc2cccc(O)c2c(=O)n1-c1ccccc1`, the IC50 at PIK3CD (Human) [1] is not below 10000 nM; on PIK3CA (human), not below 10000 nM; against PIK3CD (Human) [2], 100 to 1000 nM.

For the molecule `C[C@H](NC(=O)c1c(N)nn2cccnc12)c1cc2cccc(NCC(F)(F)F)c2c(=O)n1-c1ccccc1`, the IC50 was not below 10000 nM against PIK3CD (Human) [1], not below 10000 nM on PIK3CB (Human), not below 10000 nM against PIK3CA (human) and 100 to 1000 nM at PIK3CD (Human) [2].

With `C[C@H](NC(=O)c1c(N)nn2cccnc12)c1cc2cccc(Cl)c2c(=O)n1CC(=O)N(C)C`, the 50% inhibitory concentration (IC50) against PIK3CD (Human) [1], against PIK3CG (human) and on PIK3CA (human) was not below 10000 nM throughout.

For the molecule `Cc1ccn2nc(N)c(C(=O)N[C@@H](C)c3cc4cccc(Cl)c4c(=O)n3-c3ccccc3)c2n1`, the IC50 against PIK3CD (Human) [1] was 100 to 1000 nM; at PIK3CB (Human) it was less than 100 nM; against PIK3CG (human), 100 to 1000 nM; at PIK3CD (Human) [2], less than 100 nM.

As for `C[C@H](NC(=O)c1c(N)nn2cccnc12)c1cc2cccc(-c3cncc(NS(C)(=O)=O)c3)c2c(=O)n1-c1ccccc1`, the IC50 was 100 to 1000 nM at PIK3CD (Human) [1], not below 10000 nM against PIK3CB (Human), 100 to 1000 nM against PIK3CG (human) and less than 100 nM against PIK3CD (Human) [2].

For the molecule `C[C@H](NC(=O)c1nccnc1N)c1cc2cccc(Cl)c2c(=O)n1-c1ccccc1`, the IC50 was less than 100 nM against PIK3CD (Human) [1], 100 to 1000 nM at PIK3CB (Human), 100 to 1000 nM against PIK3CG (human) and less than 100 nM on PIK3CD (Human) [2].

As for `C[C@H](NC(=O)c1nc(-c2ccc(NS(C)(=O)=O)cc2)cnc1N)c1cc2cccc(Cl)c2c(=O)n1-c1ccccc1`, the IC50 against PIK3CD (Human) [1], against PIK3CB (Human) and against PIK3CA (human) was not below 10000 nM throughout.

Turning to `C[C@H](NC(=O)c1nc(-c2csc(S(C)(=O)=O)n2)cnc1N)c1cc2cccc(Cl)c2c(=O)n1-c1ccccc1`, the 50% inhibitory concentration (IC50) against PIK3CD (Human) [1] and on PIK3CA (human) was not below 10000 nM each time.

For the molecule `C[C@H](NC(=O)c1nc(-c2cccc(O)c2)cnc1N)c1cc2cccc(Cl)c2c(=O)n1-c1ccccc1`, the figures for the IC50 against PIK3CD (Human) [1], against PIK3CA (human) and on PIK3CD (Human) [2] were not below 10000 nM, not below 10000 nM and 100 to 1000 nM, respectively.

As to `C[C@H](NC(=O)c1c(N)nn2cccnc12)c1nc2cccc(Cl)c2c(=O)n1-c1ccccc1`, the IC50 is less than 100 nM on PIK3CD (Human) [1], 100 to 1000 nM against PIK3CB (Human), less than 100 nM at PIK3CG (human) and less than 100 nM against PIK3CD (Human) [2].

On to `Cc1c([C@H](C)NC(=O)c2c(N)nn3cccnc23)n(-c2ccccc2)c(=O)c2c(F)cccc12`, for which the concentration for half-maximal inhibition (IC50) against PIK3CD (Human) [1] is 100 to 1000 nM; against PIK3CB (Human), 100 to 1000 nM; on PIK3CG (human) it was less than 100 nM; at PIK3CD (Human) [2] it was less than 100 nM.

On to `COc1cc(-c2cccc3cc([C@H](C)NC(=O)c4c(N)nn5cccnc45)n(C4CCCCC4)c(=O)c23)ccn1`, for which the 50% inhibitory concentration (IC50) on PIK3CD (Human) [1], against PIK3CB (Human) and on PIK3CA (human) was not below 10000 nM each time.

Take `C[C@H](NC(=O)c1c(N)nn2cccnc12)c1c(C#N)c2cccc(F)c2c(=O)n1-c1ccccc1`: the IC50 at PIK3CD (Human) [1] is 100 to 1000 nM; at PIK3CB (Human) it was 100 to 1000 nM; at PIK3CG (human) it was 100 to 1000 nM; against PIK3CD (Human) [2] it was less than 100 nM.

On to `COC(=O)c1ncsc1-c1cccc2cc([C@H](C)NC(=O)c3c(N)nn4cccnc34)n(-c3ccccc3)c(=O)c12`, for which the 50% inhibitory concentration (IC50) against PIK3CD (Human) [1], against PIK3CB (Human) and on PIK3CA (human) was not below 10000 nM in each case.

On to `C[C@H](NC(=O)c1c(N)nn2cccnc12)c1cc2cccc(-c3cccnc3)c2c(=O)n1-c1ccccc1`, for which the 50% inhibitory concentration (IC50) against PIK3CD (Human) [1] is 100 to 1000 nM; on PIK3CB (Human) it was not below 10000 nM; against PIK3CG (human), 100 to 1000 nM; against PIK3CD (Human) [2], less than 100 nM.

`C[C@H](NC(=O)c1c(N)nn2cccnc12)c1cc2cccc(Cl)c2c(=O)n1-c1cccc(F)c1`: the IC50 at PIK3CD (Human) [1] was 100 to 1000 nM; against PIK3CB (Human), 100 to 1000 nM; against PIK3CG (human), less than 100 nM; at PIK3CD (Human) [2], less than 100 nM.

In the case of `Cc1cnc(C(=O)N[C@@H](C)c2cc3cccc(C(F)(F)F)c3c(=O)n2-c2ccccc2)c(N)n1`, the IC50 against PIK3CD (Human) [1], against PIK3CB (Human) and on PIK3CA (human) was not below 10000 nM throughout.

Take `C[C@H](NC(=O)c1c(N)nn2cccnc12)c1cc2cccc(Cl)c2c(=O)n1CC(O)CO` (stereo not given in full): the IC50 against PIK3CD (Human) [1] is 100 to 1000 nM; against PIK3CB (Human) it was less than 100 nM; at PIK3CG (human), 100 to 1000 nM; against PIK3CD (Human) [2] it was less than 100 nM.

For `COc1cncc(-c2cccc3cc([C@H](C)NC(=O)c4c(N)nn5cccnc45)n(-c4ccccc4)c(=O)c23)c1`, the half-maximal inhibitory concentration (IC50) on PIK3CD (Human) [1] is 100 to 1000 nM; against PIK3CB (Human), not below 10000 nM; at PIK3CG (human), less than 100 nM; on PIK3CD (Human) [2], less than 100 nM.

Regarding `C[C@H](NC(=O)c1nccnc1N)c1nc2cccc(Cl)c2c(=O)n1-c1ccccc1`, the IC50 at PIK3CD (Human) [1] was less than 100 nM; against PIK3CG (human), 100 to 1000 nM; against PIK3CA (human), not below 10000 nM.

`COc1cc(-c2cccc3nc([C@H](C)NC(=O)c4c(N)nn5cccnc45)n(-c4ccccc4)c(=O)c23)ccn1`: the 50% inhibitory concentration (IC50) is 100 to 1000 nM on PIK3CD (Human) [1], less than 100 nM against PIK3CG (human), 100 to 1000 nM on PIK3CA (human) and less than 100 nM against PIK3CD (Human) [2].

In the case of `C[C@H](NC(=O)c1c(N)nn2cccnc12)c1cc2scc(Cl)c2c(=O)n1-c1ccccc1`, the half-maximal inhibitory concentration (IC50) is 100 to 1000 nM at PIK3CD (Human) [1], 100 to 1000 nM at PIK3CB (Human), less than 100 nM at PIK3CG (human) and less than 100 nM at PIK3CD (Human) [2].

For the molecule `C[C@H](NC(=O)c1c(N)nn2cccnc12)c1cc2cccc(N3CCOCC3)c2c(=O)n1-c1ccccc1`, the concentration for half-maximal inhibition (IC50) against PIK3CD (Human) [1], at PIK3CB (Human) and against PIK3CA (human) was not below 10000 nM in each case.

Consider `C[C@H](NC(=O)c1cncc2cccnc12)c1cc2cccc(Cl)c2c(=O)n1-c1ccccc1`, for which the half-maximal inhibitory concentration (IC50) against PIK3CD (Human) [1] is 100 to 1000 nM; against PIK3CA (human), not below 10000 nM; against PIK3CD (Human) [2], less than 100 nM.

Turning to `C[C@H](NC(=O)c1nc(-c2ccc(S(C)(=O)=O)cc2)cnc1N)c1cc2cccc(Cl)c2c(=O)n1-c1ccccc1`, the IC50 against PIK3CD (Human) [1], against PIK3CB (Human) and on PIK3CA (human) was not below 10000 nM throughout.

With `Nc1nn2cccnc2c1C(=O)N1CCC[C@H]1c1cc2cccc(Cl)c2c(=O)n1-c1ccccc1`, the 50% inhibitory concentration (IC50) against PIK3CD (Human) [1] and against PIK3CA (human) was not below 10000 nM in each case.

`C[C@H](NC(=O)c1nc(-c2cccc(NS(C)(=O)=O)c2)cnc1N)c1cc2cccc(N3CCOCC3)c2c(=O)n1-c1ccccc1`: the 50% inhibitory concentration (IC50) against PIK3CD (Human) [1], at PIK3CB (Human) and on PIK3CA (human) was not below 10000 nM throughout.

`C[C@H](NC(=O)c1c(N)ncc2cccnc12)c1cc2cccc(Cl)c2c(=O)n1-c1ccccc1`: the 50% inhibitory concentration (IC50) is 100 to 1000 nM on PIK3CD (Human) [1], 100 to 1000 nM against PIK3CB (Human), 100 to 1000 nM at PIK3CG (human) and less than 100 nM against PIK3CD (Human) [2].

In the case of `C[C@H](NC(=O)c1c(N)nn2cccnc12)c1cc2scc(-c3cnn(C)c3)c2c(=O)n1-c1ccccc1`, the half-maximal inhibitory concentration (IC50) at PIK3CD (Human) [1], at PIK3CB (Human) and against PIK3CA (human) was not below 10000 nM throughout.

Consider `COc1cc(-c2cccc3cc([C@H](C)NC(=O)c4c(N)ncc5cccnc45)n(-c4ccccc4)c(=O)c23)ccn1`, for which the IC50 is 100 to 1000 nM on PIK3CD (Human) [1], not below 10000 nM against PIK3CB (Human), less than 100 nM against PIK3CG (human) and less than 100 nM on PIK3CD (Human) [2].
